Data on 3 compounds can be found in PMC6812009, “Covalent Aurora A regulation by the metabolic integrator coenzyme A” (Redox Biology, 2019).

Holding throughout (assay): Kinase profiling screen (radioactive filter-binding assay)
What all share (assay type): biochemical

The target of assay [1] is CK1δ (Homo sapiens, UniProt P48730). To be noted: 100 μM compound, 20 μM ATP; read-out: Kinase activity, % of activity in the absence of inhibitor. The procedure, abridged:
(§1)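 CoA, dpCoA and ADP were each tested in vitro, in duplicate, at 100 μM final concentration as part of a 117-kinase panel. Recombinant kinases were used with model substrates and optimal ATP concentrations.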

Assay [2] concerns the target Aurora B (Homo sapiens, UniProt Q96GD4). Conditions: for activity at 100 µM: 100 μM compound, 20 μM ATP, read-out: Kinase activity, % of activity in the absence of inhibitor. The procedure, abridged:
as §1

Assay [3] has as its target NEK6 (Homo sapiens, UniProt Q9HC98). Conditions: 100 μM compound, 50 μM ATP; read-out: Kinase activity, % of activity in the absence of inhibitor. In short, it runs like this:
as §1

For assay [4], the target named is p38α MAPK (Homo sapiens, UniProt Q16539). Conditions: 100 μM compound, 50 μM ATP; read-out: Kinase activity, % of activity in the absence of inhibitor. The procedure, abridged: as §1
Sequence of p38α MAPK (Q16539 whole entry): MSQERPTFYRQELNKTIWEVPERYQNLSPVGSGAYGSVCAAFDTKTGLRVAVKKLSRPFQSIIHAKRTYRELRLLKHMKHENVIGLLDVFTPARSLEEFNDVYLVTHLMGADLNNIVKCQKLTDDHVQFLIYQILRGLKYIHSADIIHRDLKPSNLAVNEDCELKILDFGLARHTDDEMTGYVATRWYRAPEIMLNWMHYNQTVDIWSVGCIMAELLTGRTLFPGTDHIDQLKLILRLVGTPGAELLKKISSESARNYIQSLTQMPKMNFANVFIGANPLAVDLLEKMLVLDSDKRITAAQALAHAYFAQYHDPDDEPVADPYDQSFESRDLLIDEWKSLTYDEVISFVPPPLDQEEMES
The target of assay [5] is T1, LKB1 (Homo sapiens, UniProt Q15831).
T1 sequence (Q15831 1-433): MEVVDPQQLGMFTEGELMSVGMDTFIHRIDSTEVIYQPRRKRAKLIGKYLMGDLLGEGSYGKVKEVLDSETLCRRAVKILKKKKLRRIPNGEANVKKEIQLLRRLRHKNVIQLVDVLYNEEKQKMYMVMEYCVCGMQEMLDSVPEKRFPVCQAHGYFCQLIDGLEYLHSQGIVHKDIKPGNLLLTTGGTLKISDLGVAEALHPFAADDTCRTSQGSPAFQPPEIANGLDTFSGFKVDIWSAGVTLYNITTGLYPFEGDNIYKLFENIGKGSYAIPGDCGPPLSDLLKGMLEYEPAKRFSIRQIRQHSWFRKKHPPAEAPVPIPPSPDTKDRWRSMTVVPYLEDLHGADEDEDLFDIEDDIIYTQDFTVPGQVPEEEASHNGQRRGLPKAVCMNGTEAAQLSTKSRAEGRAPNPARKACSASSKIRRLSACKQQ
T1 sequence (Q7RTN6 1-431 partner): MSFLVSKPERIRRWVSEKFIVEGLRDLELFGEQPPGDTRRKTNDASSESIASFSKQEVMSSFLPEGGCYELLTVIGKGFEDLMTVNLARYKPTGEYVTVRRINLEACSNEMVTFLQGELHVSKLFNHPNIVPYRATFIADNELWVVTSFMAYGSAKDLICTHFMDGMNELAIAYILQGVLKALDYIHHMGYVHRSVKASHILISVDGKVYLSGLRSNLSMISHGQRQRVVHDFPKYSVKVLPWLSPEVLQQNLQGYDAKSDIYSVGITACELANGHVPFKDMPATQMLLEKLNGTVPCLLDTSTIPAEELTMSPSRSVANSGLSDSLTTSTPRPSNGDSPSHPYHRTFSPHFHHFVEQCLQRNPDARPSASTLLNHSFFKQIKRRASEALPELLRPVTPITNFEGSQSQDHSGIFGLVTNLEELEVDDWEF
T1 sequence (Q9Y376 1-341 partner): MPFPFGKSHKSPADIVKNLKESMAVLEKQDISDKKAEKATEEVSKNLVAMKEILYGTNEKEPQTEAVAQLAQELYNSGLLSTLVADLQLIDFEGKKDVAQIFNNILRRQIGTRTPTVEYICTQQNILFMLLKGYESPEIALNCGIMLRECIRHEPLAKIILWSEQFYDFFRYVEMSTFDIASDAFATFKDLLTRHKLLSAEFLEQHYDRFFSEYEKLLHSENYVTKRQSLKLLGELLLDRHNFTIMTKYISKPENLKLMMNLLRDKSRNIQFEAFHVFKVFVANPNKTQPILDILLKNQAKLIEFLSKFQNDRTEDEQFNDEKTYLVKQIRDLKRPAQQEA
Conditions: 100 μM compound, 20 μM ATP; read-out: Kinase activity, % of activity in the absence of inhibitor. In short, it runs like this:
as §1

Assay [6] concerns the target T2, GCK (Homo sapiens, UniProt Q12851).
T2 sequence (Q12851 1-820): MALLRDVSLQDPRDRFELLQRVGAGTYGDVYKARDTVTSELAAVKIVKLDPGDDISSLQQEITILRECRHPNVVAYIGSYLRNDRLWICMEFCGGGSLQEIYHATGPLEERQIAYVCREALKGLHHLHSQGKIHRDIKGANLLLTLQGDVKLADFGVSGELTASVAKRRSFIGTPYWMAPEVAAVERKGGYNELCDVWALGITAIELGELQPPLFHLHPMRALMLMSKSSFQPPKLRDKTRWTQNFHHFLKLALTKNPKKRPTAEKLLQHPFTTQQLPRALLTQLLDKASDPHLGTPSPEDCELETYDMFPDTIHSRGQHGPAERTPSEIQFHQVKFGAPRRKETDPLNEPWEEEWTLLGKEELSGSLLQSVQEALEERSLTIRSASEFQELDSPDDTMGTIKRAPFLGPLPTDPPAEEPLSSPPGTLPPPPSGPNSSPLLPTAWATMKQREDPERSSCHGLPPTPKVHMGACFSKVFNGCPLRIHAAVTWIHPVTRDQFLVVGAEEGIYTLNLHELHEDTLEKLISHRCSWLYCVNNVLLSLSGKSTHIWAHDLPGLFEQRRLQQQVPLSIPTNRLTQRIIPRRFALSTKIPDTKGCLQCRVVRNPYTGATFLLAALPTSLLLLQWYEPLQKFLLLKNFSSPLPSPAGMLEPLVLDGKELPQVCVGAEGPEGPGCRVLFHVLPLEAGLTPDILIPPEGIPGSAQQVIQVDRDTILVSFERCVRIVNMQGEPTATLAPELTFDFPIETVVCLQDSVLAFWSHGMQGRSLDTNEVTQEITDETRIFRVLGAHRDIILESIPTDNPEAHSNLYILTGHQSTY
Conditions: 100 μM compound, 20 μM ATP; read-out: Kinase activity, % of activity in the absence of inhibitor. In short, it runs like this: as §1

The target of assay [7] is TIE2 (Homo sapiens, UniProt Q02763). Conditions: 100 μM compound, 20 μM ATP; read-out: Kinase activity, % of activity in the absence of inhibitor. In short, it runs like this: as §1
Sequence of TIE2 (Q02763 23-1124): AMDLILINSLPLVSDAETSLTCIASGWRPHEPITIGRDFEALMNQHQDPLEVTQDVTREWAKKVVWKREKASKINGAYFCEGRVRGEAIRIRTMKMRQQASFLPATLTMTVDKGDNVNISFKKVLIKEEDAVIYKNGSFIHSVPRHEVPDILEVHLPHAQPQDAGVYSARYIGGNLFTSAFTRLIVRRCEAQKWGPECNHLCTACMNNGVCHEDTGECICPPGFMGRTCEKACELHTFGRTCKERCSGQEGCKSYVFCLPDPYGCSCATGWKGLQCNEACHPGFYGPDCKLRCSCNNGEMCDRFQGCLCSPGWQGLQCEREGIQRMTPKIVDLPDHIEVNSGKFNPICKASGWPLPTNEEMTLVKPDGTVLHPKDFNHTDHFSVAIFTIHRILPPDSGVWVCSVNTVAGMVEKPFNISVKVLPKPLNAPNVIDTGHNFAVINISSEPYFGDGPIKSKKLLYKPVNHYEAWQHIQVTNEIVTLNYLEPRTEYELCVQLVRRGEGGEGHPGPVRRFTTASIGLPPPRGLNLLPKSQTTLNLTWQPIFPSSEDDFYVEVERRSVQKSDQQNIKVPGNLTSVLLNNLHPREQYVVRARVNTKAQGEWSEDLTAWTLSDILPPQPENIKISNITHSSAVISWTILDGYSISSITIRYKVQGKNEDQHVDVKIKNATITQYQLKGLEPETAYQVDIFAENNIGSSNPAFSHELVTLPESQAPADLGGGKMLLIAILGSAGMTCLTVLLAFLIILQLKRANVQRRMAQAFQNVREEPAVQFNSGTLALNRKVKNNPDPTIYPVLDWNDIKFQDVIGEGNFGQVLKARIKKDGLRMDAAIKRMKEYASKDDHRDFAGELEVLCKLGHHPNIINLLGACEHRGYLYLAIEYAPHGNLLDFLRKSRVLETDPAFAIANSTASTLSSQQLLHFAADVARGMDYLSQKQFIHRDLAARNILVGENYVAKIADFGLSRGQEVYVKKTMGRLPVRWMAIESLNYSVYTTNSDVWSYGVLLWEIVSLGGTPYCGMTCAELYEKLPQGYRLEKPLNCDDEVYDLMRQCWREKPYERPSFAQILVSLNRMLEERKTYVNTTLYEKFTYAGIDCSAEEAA
For assay [8], the target named is MSK1 (Homo sapiens, UniProt O75582). Conditions: 100 μM compound, 20 μM ATP; read-out: Kinase activity, % of activity in the absence of inhibitor. The procedure, abridged:
as §1

Sequence of MSK1 (O75582 whole entry): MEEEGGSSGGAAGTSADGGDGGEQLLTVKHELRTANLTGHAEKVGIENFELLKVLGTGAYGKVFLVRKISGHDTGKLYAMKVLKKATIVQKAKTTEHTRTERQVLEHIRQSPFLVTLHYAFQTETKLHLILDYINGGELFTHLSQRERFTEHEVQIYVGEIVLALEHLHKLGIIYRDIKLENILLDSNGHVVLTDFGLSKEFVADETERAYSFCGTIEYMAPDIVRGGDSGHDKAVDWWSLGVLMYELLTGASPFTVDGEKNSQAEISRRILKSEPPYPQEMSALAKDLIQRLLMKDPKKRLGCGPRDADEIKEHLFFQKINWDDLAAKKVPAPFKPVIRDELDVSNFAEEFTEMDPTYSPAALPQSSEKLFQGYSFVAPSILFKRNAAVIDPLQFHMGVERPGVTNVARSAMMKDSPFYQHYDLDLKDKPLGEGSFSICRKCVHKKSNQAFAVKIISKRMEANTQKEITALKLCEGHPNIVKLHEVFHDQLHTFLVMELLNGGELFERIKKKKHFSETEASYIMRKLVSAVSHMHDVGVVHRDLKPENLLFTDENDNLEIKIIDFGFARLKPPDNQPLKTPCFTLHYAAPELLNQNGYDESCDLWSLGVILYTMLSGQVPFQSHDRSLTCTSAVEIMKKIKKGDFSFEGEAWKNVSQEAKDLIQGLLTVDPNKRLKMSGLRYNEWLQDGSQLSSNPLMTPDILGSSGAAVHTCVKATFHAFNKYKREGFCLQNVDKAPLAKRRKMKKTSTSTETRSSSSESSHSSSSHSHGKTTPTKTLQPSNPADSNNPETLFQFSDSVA
Sequence of CK1δ (P48730 whole entry): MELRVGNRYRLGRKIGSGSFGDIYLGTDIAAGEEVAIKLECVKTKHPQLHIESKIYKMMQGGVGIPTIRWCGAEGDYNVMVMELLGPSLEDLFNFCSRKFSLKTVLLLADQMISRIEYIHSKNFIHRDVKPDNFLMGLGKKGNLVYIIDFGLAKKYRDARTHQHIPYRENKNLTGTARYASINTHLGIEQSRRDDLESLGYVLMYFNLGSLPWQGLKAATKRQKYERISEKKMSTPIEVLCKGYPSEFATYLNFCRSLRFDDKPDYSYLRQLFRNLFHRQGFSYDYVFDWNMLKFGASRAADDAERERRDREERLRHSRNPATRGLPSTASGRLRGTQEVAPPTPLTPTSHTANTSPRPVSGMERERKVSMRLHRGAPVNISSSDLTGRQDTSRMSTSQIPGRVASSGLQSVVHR
Sequence of NEK6 (Q9HC98 whole entry): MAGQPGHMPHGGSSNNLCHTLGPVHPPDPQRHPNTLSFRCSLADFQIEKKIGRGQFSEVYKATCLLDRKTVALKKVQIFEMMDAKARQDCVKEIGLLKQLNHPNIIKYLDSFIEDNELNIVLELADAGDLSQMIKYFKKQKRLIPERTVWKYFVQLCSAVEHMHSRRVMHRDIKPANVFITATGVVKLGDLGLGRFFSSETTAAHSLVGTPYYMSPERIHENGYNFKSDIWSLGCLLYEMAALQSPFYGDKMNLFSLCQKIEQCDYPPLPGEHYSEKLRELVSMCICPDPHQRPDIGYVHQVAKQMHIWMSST
Sequence of Aurora B (Q96GD4 whole entry): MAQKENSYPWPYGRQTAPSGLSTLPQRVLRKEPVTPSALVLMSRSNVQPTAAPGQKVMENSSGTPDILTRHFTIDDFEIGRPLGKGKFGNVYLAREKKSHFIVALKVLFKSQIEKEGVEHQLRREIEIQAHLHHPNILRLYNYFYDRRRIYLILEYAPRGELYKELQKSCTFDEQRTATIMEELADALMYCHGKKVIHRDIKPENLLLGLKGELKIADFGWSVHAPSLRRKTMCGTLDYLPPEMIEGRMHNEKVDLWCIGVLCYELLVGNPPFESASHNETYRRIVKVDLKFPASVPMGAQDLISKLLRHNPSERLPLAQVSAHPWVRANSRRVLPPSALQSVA

Take `CC(C)(COP(=O)(O)OP(=O)(O)OCC1OC(n2cnc3c(N)ncnc32)C(O)C1O)C(O)C(=O)NCCC(=O)NCCS` (stereo not shown) [dpCoA, dephospho-CoA]: the activity at 100 µM in assay [1] was determined as 80.4%; in assay [2], 55.1%; in assay [3], 69.6%; in assay [4], 87.7%; in assay [5] it was 81.1%; in assay [6], 71.2%. Also, the activity at 100 µM amounted to 83.4% in assay [7] and 70.5% in assay [8].

By inhibition is commonly meant the drop in the measured response relative to a control, in per cent. Consider `CC(C)(COP(=O)(O)OP(=O)(O)OC[C@H]1O[C@@H](n2cnc3c(N)ncnc32)[C@H](O)[C@@H]1OP(=O)(O)O)[C@@H](O)C(=O)NCCC(=O)NCCS` [CoA, Coenzyme A], for which the activity at 100 µM in assay [1] was determined as 80.8%; in assay [2], 54.3%; in assay [3], 118%; in assay [4] it was 112%; in assay [5] it was 103%; in assay [6], 109%. Also, the activity at 100 µM worked out at 93% in assay [7] and 106% in assay [8]. The inhibition at 100 µM in assay [2] (at 100 μM compound) was 46%.

With `Nc1ncnc2c1ncn2C1OC(COP(=O)(O)OP(=O)(O)O)C(O)C1O` (stereo not shown) [ADP], the activity at 100 µM in assay [1] amounted to 57.6%; in assay [2], 47.8%; in assay [3], 26.6%; in assay [4], 60.3%; in assay [5] it was 71%; in assay [6], 56.5%. In addition, the figures for the activity at 100 µM in assay [7] and in assay [8] were 33.1% and 53.3%, respectively.
